# Experimental data reported in patent US10940139B2, “Compounds that interact with the Ras superfamily for the treatment of cancers, inflammatory diseases, rasopathies, and fibrotic disease” (Shy Therapeutics LLC, priority 2017, dated 2021).
# Test system: MAPK phosphorylation in PANC-1 pancreatic cancer cell line
# Assay: MAPK cell-based phosphorylation assay (cell-direct ELISA, EGF stimulation)
# Settings: Homo sapiens, * = tested at 10 μM
# Summary of the method: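 Cell-direct ELISA measured phospho-MAPK, with fluorescence read at 595 nm from AmpliFlu Red. Before fixation, PANC-1 cells starved overnight received 6 hours of compound (30 μM single dose or serial dilutions, 0.3% DMSO, 37° C), followed by 1.5 ng/ml EGF for 15 min.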
row,Compound,inhibition at 10 µM [%]
1,Oc1nc(-c2ccccn2)nc2c(CC3CNC3)csc12 [drawing 1279],0
2,CC(C)Oc1ccc(-c2c(-c3ccccc3)sc3c(O)nc(-c4nccn4C)nc23)cc1F [drawing 1371],25 to 50
3,Oc1nc(-c2ccccn2)nc2c(-c3cncnc3)csc12 [drawing 1265],0
4,Oc1nc(-c2ccccn2)nc2sc3c(c12)CCNC3 [drawing 1194],25 to 50
5,COCCNc1nc(-c2nccn2C)nc2sc(-c3cccc(OC)c3)c(-c3ccccc3)c12 [drawing 1346],76 to 100
6,COCCNc1nc(-c2cccc(N)n2)nc2sc(-c3ccccc3)c(-c3ccccc3)c12 [drawing 1351],51 to 75
7,COC1CCN(c2nc(-c3nccn3C)nc3sc(-c4ccccc4)c(-c4ccccc4)c23)C1 (stereo not shown) [drawing 1331],76 to 100
8,CC(O)CNc1nc(-c2nccn2C)nc2sc(-c3ccccc3)c(-c3ccccc3)c12 (stereo not shown) [drawing 1329],1 to 25
9,Cc1sc2c(O)nc(-c3ccccn3)nc2c1Br [drawing 1282],76 to 100
10,Cc1sc2c(O)nc(-c3nccn3C)nc2c1-c1cccc(OC(F)(F)F)c1,25 to 50
11,Cc1ccc(-c2cc3nc(-c4ccccn4)nc(O)c3s2)cc1 [drawing 1315],76 to 100
12,CC(C)Cc1csc2c(O)nc(-c3ccccn3)nc12 [drawing 1255],76 to 100
13,Cc1cc2nc(-c3ccccn3)nc(O)c2s1 [drawing 1246],25 to 50
14,COc1c(O)nc(-c2ccccn2)nc1Oc1cccc(C(F)(F)F)c1 [drawing 1317],1 to 25
15,Cc1sc2c(O)nc(-c3ccccn3)nc2c1C(=O)N1CCN(c2ccccc2)CC1C (stereo not shown) [drawing 1270],1 to 25
16,Cc1c(Br)sc2c(O)nc(-c3ccccn3)nc12 [drawing 1248],1 to 25
17,CC(C)COc1ccc(-c2csc3c(O)nc(-c4nccn4C)nc23)cn1 [drawing 1372],25 to 50
18,Oc1nc(-c2ccccn2)nc2c(CC3CCNC3)csc12 (stereo not shown) [drawing 1286],1 to 25
19,CN1CCN(c2nc(-c3ccccn3)nc3scc(C(=O)NCCc4cnc(O)nc4)c23)CC1 [drawing 1236],25 to 50
20,COc1nc(-c2ccccn2)nc2c(C3CCCCC3)csc12 [drawing 1251],1 to 25
21,CC(C)(O)c1ccc(-c2csc3c(O)nc(-c4ccccn4)nc23)c(F)c1 [drawing 1219],76 to 100
22,O=C(c1csc2c(O)nc(-c3ccccn3)nc12)N1CCNC(c2ccc(Cl)cc2)C1 (stereo not shown) [drawing 1285],0
23,Oc1nc(-c2ccccn2)nc2c(-c3cc(F)cc(F)c3)csc12 [drawing 1237],76 to 100
24,Cn1ccnc1-c1nc(O)c2c(-c3ccccc3)c(-c3ccccc3)sc2n1 [drawing 1296],0
25,N#Cc1ccc2c(c1)CCCC2C(=O)Nc1ccnc(-c2ccccn2)n1 (stereo not shown) [drawing 1197],1 to 25
26,Cc1ccc(-c2csc3c(O)nc(-c4ccccn4)nc23)cc1 [drawing 1320],1 to 25
27,Oc1nc(-c2ccccn2)nc2c(-c3ccccc3OC3CCCCC3)csc12 [drawing 1205],1 to 25
28,Oc1nc(-c2ccccn2)nc2c(-c3ccc(C4CCC4)cc3)csc12 [drawing 1204],51 to 75
29,Cc1sc2c(O)nc(-c3ccccn3)nc2c1C(=O)N1CCN(Cc2cccc(O)c2)CC1 [drawing 1271],25 to 50

# Same assay, conditions: Homo sapiens, at 30 μM
row,Compound,inhibition at 30 µM [%]
1,O=C(c1csc2c(O)nc(-c3ccccn3)nc12)N1CCNC(Cc2ccccc2)C1 (stereo not shown) [drawing 1154],1 to 25
2,CCN(CC)C(=O)CN1CCN(c2nc(-c3ccccn3)nc3scc(-c4ccccc4)c23)CC1 [drawing 1098],25 to 50
3,COCCCC1CCN(C(=O)c2csc3c(O)nc(-c4ccccn4)nc23)CC1 [drawing 1066],1 to 25
4,COc1ccc(CC(=O)Nc2nnc(-c3ccccn3)[nH]2)cc1 [drawing 1006],1 to 25
5,COCCCCNC(=O)c1csc2nc(-c3ccccn3)nc(N3CCN(C)CC3)c12 [drawing 1131],1 to 25
6,CC(C)(C(=O)Nc1ccnc(-c2ccccn2)n1)c1ccc(C#N)cc1 [drawing 1135],25 to 50
7,O=C(Cn1cnc2ccccc2c1=O)Nc1nc(-c2ccccn2)cs1 [drawing 1030],1 to 25
8,COC(=O)c1cc(NCC2NC(CC(C)C)=NO2)ccc1Cl (stereo not shown),1 to 25
9,Nc1nc(O)c2scc(-c3ccccc3Cl)c2n1 [drawing 1073],1 to 25
10,O=C(c1csc2c(O)nc(-c3ccccn3)nc12)N1CCN(c2ccc(F)cc2F)CC1 [drawing 1142],1 to 25
11,COC(=O)c1ccc(C(=O)NCC2(c3ccccc3OC)CCCC2)nc1 [drawing 1048],1 to 25
12,CC(O)CNc1nc(-c2ccccn2)nc2scc(-c3ccccc3)c12 (stereo not shown) [drawing 1042],25 to 50
13,Cc1cnc(-c2ccccn2)nc1NC(=O)COCc1ccnc(O)c1 [drawing 1175],25 to 50
14,CCOc1cc(S(=O)(=O)N(Cc2ccccc2)Cc2ccccc2)c(OCC)cc1C [drawing 1049],1 to 25
15,COc1ccc(CN2CCN(C(=O)c3csc4c(O)nc(-c5ccccn5)nc34)CC2)cc1 [drawing 1124],1 to 25
16,OC1CCCN(c2nc(-c3ccccn3)nc3scc(-c4ccccc4)c23)C1 (stereo not shown) [drawing 1102],51 to 75

row,Compound,inhibition at 30 µM [%]
1,O=C(c1csc2c(O)nc(-c3ccccn3)nc12)N1CCOC(c2ccccc2Cl)C1 (stereo not shown) [drawing 1149],1 to 25
2,O=C(CN1CCN(c2nc(-c3ccccn3)nc3scc(-c4ccccc4)c23)CC1)N1CCCC1 [drawing 1104],1 to 25
3,O=c1nc(-c2ccccn2)[nH]c2scc(-c3ccccc3Cl)c12 [drawing 1036],25 to 50
4,O=C(Nc1nc(-c2ccccn2)cs1)c1cccnc1 [drawing 1032],1 to 25
5,NC(=O)C1CCN(c2nc(-c3ccccn3)nc3scc(-c4ccccc4)c23)CC1 [drawing 1111],1 to 25
6,N#Cc1ccccc1N1CCN(C(=O)c2csc3c(O)nc(-c4ccccn4)nc23)CC1 [drawing 1122],1 to 25
7,COc1ccc(COCC(=O)N2CCCc3c(O)nc(-c4ccccn4)nc32)cc1 [drawing 1057],1 to 25
8,O=c1nc(-c2ccccn2)[nH]c2c1sc1ccccc12 [drawing 1038],76 to 100
9,Cc1nnc(C(Nc2nc(-c3ccccn3)nc3scc(-c4ccccc4)c23)c2ccccc2)n1C (stereo not shown) [drawing 1084],51 to 75
10,Oc1nc(-c2ccccn2)nc2c(C3CCNCC3)csc12 [drawing 1116],1 to 25
11,CC(C)(C(=O)Nc1nc(-c2ccccn2)nc2sccc12)c1ccc(C#N)cc1 [drawing 1136],1 to 25
12,O=C(Nc1nnc(-c2ccccn2)[nH]1)c1cccc(N2CCCS2(=O)=O)c1 [drawing 1021],1 to 25
13,O=C1CCN(c2nc(-c3ccccn3)nc3scc(-c4ccccc4)c23)CC1 [drawing 1110],25 to 50
14,N#Cc1ccc(CC(=O)Nc2nc(-c3ccccn3)nc3sccc23)cc1 [drawing 1176],76 to 100
15,O=S1(=O)CCC(Nc2nc(-c3ccccn3)nc3scc(-c4ccccc4)c23)C1 (stereo not shown) [drawing 1100],1 to 25
16,COc1ccc2c(c1)CCC2C(=O)Nc1nc(-c2ccccn2)nc2sccc12 (stereo not shown) [drawing 1177],1 to 25
